Measurements published in patent EP4621409A1, “NOVEL ANTIVIRAL PEPTIDE” (Daehannupharm Co., Ltd., priority 2022, dated 2024).
Read-outs that look alike come from different tables or passages of the source. No end group written: not given here.

How the values were obtained:
dengue virus = conditions: for IC50: dengue virus incubated with peptide 37°C 1 hour, Vero cells, 2 days, triplicate
Experimental: The inoculated cells were cultured overnight.
The SP-049 peptide was prepared such that the maximum concentration was 125 nM and the minimum concentration was 0.98 nM (concentrations: 125 nM; 62.5 nM; 31.25 nM; 15.62 nM; 7.81 nM; 3.91 nM; 1.95 nM; and 0.98 nM).
The present inventors calculated the inhibition rate (% inhibition) of each well based on the formula of the standard curve by converting the average Ct value of wells infected with dengue virus without peptide treatment in the same plate into an infection rate of 100%, and using this to create a standard curve. Each value was obtained through three repeated experiments (in triplicate), and IC50 values were derived using GraphPad Prism 5 software.

HCV = conditions: Table 1 in Cheng, Guofeng, et al.; cited from earlier work

Row | Sequence | IC50 (SARS-CoV-2 virus) [µM] | IC50 (dengue virus) [µM] | % Inhibition (dengue virus; Conc. 7.81 nM) [%] | % Inhibition (dengue virus; Conc. 15.63 nM) [%] | % Inhibition (dengue virus; Conc. 31.25 nM) [%] | % Inhibition (dengue virus; Conc. 62.50 nM) [%] | % Inhibition (dengue virus; Conc. 125.00 nM) [%] | also measured
1 | DKIVLFILSILEKIYNLL [SP-171, DKIVLFILSILEKIYNLL] | 18.7 | – | – | – | – | – | – | –
2 | WDCVQDIWEYIFRTAMKI [SP-185, WDCVQDIWEYIFRTAMKI] | – | 0.519 | – | – | – | – | – | % Inhibition (dengue virus; Conc. 39.06 nM): -7.43%; % Inhibition (dengue virus; Conc. 78.13 nM): 11.76%; % Inhibition (dengue virus; Conc. 156.25 nM): 36.60%; % Inhibition (dengue virus; Conc. 312.50 nM): 33.04%; % Inhibition (dengue virus; Conc. 625.00 nM): 51.77%; % Inhibition (dengue virus; Conc. 1250.00 nM): 89.53%; % Inhibition (dengue virus; Conc. 2500.00 nM): 100.00%; % Inhibition (dengue virus; Conc. 5000.00 nM): 100.00%
3 | SFLDIVWSIIDIFKEFCK [SP-003, SFLDIVWSIIDIFKEFCK] | 10.3 | 0.022 | -6.03 | 38.56 | 71.23 | 63.98 | 99.91 | % Inhibition (dengue virus; Conc. 250.00 nM): 100.00%; % Inhibition (dengue virus; Conc. 500.00 nM): 100.00%; % Inhibition (dengue virus; Conc. 1000.00 nM): 100.00%
4 | DFWSKLVYFFAEIIRFLS [SP-143, DFWSKLVYFFAEIIRFLS] | 19.5 | 0.0161 | 49.26 | 53.07 | 79.28 | 94.07 | 99.42 | % Inhibition (dengue virus; Conc. 0.98 nM): 59.95%; % Inhibition (dengue virus; Conc. 1.95 nM): -28.80%; % Inhibition (dengue virus; Conc. 3.91 nM): 42.98%
5 | DVTRLLELILDVLAYIIS [SP-151, DVTRLLELILDVLAYIIS] | 5 | – | – | – | – | – | – | –
6 | FSFWVWLDNIIDLVKKYI [SP-114, FSFWVWLDNIIDLVKKYI] | 19.5 | – | – | – | – | – | – | –
7 | YNLFDLLIYIWNKIFDDY [SP-049, YNLFDLLIYIWNKIFDDY] | 1.8 | 0.00385 | 93.03 | 100.00 | 100.00 | 100.00 | – | % Inhibition (dengue virus; Conc. 0.49 nM): 24.20%; % Inhibition (dengue virus; Conc. 0.98 nM): 20.16%; % Inhibition (dengue virus; Conc. 1.95 nM): 39.14%; % Inhibition (dengue virus; Conc. 3.91 nM): 45.30%
8 | WSEILREFLNLISLIWSR [SP-110, WSEILREFLNLISLIWSR] | 19.5 | – | – | – | – | – | – | –
9 | ESLKNFWESLWKFFTHFF [SP-001, ESLKNFWESLWKFFTHFF] | – | 0.0226 | -0.47 | 45.60 | 57.96 | 78.78 | 82.51 | % Inhibition (dengue virus; Conc. 250.00 nM): 100.00%; % Inhibition (dengue virus; Conc. 500.00 nM): 100.00%; % Inhibition (dengue virus; Conc. 1000.00 nM): 100.00%
10 | ILDFFVGFIDWLVRYLNK [SP-046, ILDFFVGFIDWLVRYLNK] | 7.9 | 0.0177 | 15.33 | – | 100.00 | 100.00 | 100.00 | % Inhibition (dengue virus; Conc. 0.98 nM): 3.30%; % Inhibition (dengue virus; Conc. 1.95 nM): 3.30%; % Inhibition (dengue virus; Conc. 3.91 nM): 5.60%; % Inhibition (dengue virus; Conc. 15.62 nM): 36.10%
11 | DWLRIIWDWVCSVVSDFK [SEQ ID NO: 301] | – | – | – | – | – | – | – | antiviral activity compared among C5A analogs derived from HCV 1a, 1b, 2a, 3a, 4a, 5a and 6a (HCV): higher antiviral activity
12 | FTFWTWLEAILDLIKKHI [SP-116, FTFWTWLEAILDLIKKHI] | 4.1 | – | – | – | – | – | – | –
13 | FTNFHRQLFCWIDKWIDL [SP-191, FTNFHRQLFCWIDKWIDL] | – | 0.776 | – | – | – | – | – | % Inhibition (dengue virus; Conc. 39.06 nM): -20.14%; % Inhibition (dengue virus; Conc. 78.13 nM): -14.44%; % Inhibition (dengue virus; Conc. 156.25 nM): 5.32%; % Inhibition (dengue virus; Conc. 312.50 nM): 46.78%; % Inhibition (dengue virus; Conc. 625.00 nM): 29.53%; % Inhibition (dengue virus; Conc. 1250.00 nM): 64.10%; % Inhibition (dengue virus; Conc. 2500.00 nM): 98.50%; % Inhibition (dengue virus; Conc. 5000.00 nM): 99.99%
14 | QSFLDIVWSIIDIFKEFC [SP-004, QSFLDIVWSIIDIFKEFC] | 8.9 | 0.207 | -1.96 | 6.56 | 9.23 | 22.45 | 34.78 | % Inhibition (dengue virus; Conc. 250.00 nM): 61.21%; % Inhibition (dengue virus; Conc. 500.00 nM): 99.95%; % Inhibition (dengue virus; Conc. 1000.00 nM): 100.00%
15 | SWKEIVNLLYELLASLIR [SP-101, SWKEIVNLLYELLASLIR] | 11.6 | 0.1 | -14.11 | 20.94 | 0.96 | 23.20 | 65.09 | % Inhibition (dengue virus; Conc. 250.00 nM): 97.07%; % Inhibition (dengue virus; Conc. 500.00 nM): 100.00%; % Inhibition (dengue virus; Conc. 1000.00 nM): 100.00%
16 | ILVRWLSHFFEYLDRFYT [SP-221, ILVRWLSHFFEYLDRFYT] | 19.5 | – | – | – | – | – | – | –
